The target in one test is PARG (389-976) (Homo sapiens (Human), UniProt Q86W56). The experiment in a line: PARG enzyme inhibition assay (TR-FRET). The test is classed as biochemical. The method, then: PARG Enzyme Inhibition Assay
PARG in vitro assays were conducted in standard 384-well plates in a total volume of 15 μL.

The next test concerns the target PARG (Homo sapiens (Human), UniProt Q86W56). The experiment in a line: PARG cell inhibition assay (PAR staining after H2O2). The test is classed as cell-based. Particulars: UWB1.289 cells; value in brackets. The method, then:
PARG Cell Inhibition Assay
UWB1.289 cells were used and the medium was 50% MEBM+50% 1640+3% FBS+1×PS. The cells were cultured according to ATCC standard operation and the cells were assayed in exponential growth phase for the experiment. Re-suspend cell in medium to a proper concentration, only cells with viability greater than 90% are used for assays.
Seed cells UWB1.289 in each culture medium, incubate overnight at 37° C., 5% CO2.
Test compounds was diluted with DMSO in gradient. Add test compound in cell plate, incubate at 37° C.
Add compounds and H2O2 mixture into cell plate, incubate at 37° C. Use 100 nM PDD00017273 as positive control.
Remove solution and recovery cell, incubate at 37° C.
Remove solution in the plate and add Cold-MeOH, incubate at −20° C.
Add blocking buffer into cell plate, incubate at RT.
Add PAR mAb, incubate at 4° C. overnight.
Add secondary antibody and DNA stain DRAQ5, incubate at RT.
Wash 3 times with PBST and 2 times with PBS. Turn plate upside down and centrifuge 1000 rpm 1 min.
Scan plate using LI-COR for best result.
Calculate the % inhibition according to the following formula: % inhibition=(compound signal value−negative control signal average)/(positive control signal average−negative control signal average)×100. Use the formula Y=Bottom+(Top−Bottom)/(1+10^((Log IC50−X)*HillSlope)) to fit the curve to obtain the IC50 values.

PARG, sequence (Q86W56 whole entry): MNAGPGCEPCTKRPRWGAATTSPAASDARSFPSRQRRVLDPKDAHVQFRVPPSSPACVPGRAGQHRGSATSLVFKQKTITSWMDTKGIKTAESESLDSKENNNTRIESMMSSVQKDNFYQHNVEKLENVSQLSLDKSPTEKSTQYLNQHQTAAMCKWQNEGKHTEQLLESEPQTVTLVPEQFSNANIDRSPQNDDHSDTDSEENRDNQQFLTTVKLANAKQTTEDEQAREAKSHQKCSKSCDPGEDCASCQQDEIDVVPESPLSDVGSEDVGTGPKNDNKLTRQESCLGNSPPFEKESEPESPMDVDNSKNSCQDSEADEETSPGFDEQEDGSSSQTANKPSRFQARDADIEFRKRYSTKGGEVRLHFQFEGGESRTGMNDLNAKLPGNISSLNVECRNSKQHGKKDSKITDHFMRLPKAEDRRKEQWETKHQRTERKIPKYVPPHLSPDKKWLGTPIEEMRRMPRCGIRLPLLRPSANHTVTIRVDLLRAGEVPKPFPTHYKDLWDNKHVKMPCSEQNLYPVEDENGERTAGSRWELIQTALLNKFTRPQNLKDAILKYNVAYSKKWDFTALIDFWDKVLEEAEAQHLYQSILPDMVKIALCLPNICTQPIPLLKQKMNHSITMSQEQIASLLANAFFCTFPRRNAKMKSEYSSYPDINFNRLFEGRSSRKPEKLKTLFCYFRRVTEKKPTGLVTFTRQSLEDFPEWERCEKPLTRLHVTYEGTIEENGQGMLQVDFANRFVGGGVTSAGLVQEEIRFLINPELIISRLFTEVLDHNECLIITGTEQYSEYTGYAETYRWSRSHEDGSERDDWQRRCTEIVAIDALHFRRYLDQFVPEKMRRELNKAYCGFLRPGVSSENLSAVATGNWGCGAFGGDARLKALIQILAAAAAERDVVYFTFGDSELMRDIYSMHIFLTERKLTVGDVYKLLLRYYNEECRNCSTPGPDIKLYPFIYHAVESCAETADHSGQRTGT
PARG (389-976), sequence (Q86W56 389-976): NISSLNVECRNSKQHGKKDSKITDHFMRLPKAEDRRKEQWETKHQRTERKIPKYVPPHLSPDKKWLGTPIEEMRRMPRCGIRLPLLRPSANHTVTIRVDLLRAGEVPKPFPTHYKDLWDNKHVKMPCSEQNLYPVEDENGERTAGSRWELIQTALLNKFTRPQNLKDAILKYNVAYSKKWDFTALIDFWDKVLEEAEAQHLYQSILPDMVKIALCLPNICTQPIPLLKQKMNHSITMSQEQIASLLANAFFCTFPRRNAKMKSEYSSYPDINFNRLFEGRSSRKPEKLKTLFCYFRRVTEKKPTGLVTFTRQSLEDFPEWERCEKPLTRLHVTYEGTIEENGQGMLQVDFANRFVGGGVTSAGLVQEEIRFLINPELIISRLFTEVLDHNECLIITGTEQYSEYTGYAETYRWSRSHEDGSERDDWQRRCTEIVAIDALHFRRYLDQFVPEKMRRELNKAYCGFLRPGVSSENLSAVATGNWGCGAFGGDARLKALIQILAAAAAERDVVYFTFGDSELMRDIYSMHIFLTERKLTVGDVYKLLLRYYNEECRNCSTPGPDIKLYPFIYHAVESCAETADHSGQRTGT

As to `CC(C)C(=O)N1CCN(c2cc(S(=O)(=O)NC3(C)CC3)cc3c(-c4nnc(C(F)F)s4)nn(C)c23)CC1` [Compound 5], the IC50 on PARG (389-976) (Table 1, class symbol) is < 100 nM; against PARG (389-976) (Table 1, value in brackets), 0.5 nM; against PARG it was 3.1 nM.
On to `Cc1nc(C)c(Cn2nc(-c3nnc(C(F)F)s3)c3cc(S(=O)(=O)NC4(C)CC4)ccc32)s1` [compound 1, reference compound], for which the IC50 at PARG (389-976) (Table 1, value in brackets) came out at 1.9 nM; against PARG, 14.7 nM.
Regarding `Cc1cc(Cn2c(=O)n(Cc3cnc(C)s3)c(=O)c3cc(S(=O)(=O)NC4(C)CC4)ccc32)n(C)n1` [PDD00017273, reference compound], the IC50 at PARG (389-976) (Table 3, class symbol) was < 100 nM; against PARG it was 13.4 nM.
For the molecule `CC(C)C(=O)N1CCN(c2cc(S(=O)(=O)NC3(C)CC3)cc3c(-c4nnc(C(F)F)s4)n[nH]c23)CC1` [Compound 3], the half-inhibitory concentration (IC50) on PARG (389-976) (Table 1, class symbol) was < 100 nM; on PARG (389-976) (Table 1, value in brackets) it was 1 nM; at PARG, 9.6 nM.
Consider `C[C@H](N)C(=O)N1C2CCC1CC(c1cc(S(=O)(=O)NC3(C#N)CC3)cc3c(-c4nnc(C(F)F)s4)nn(C)c13)C2` (some centres unmarked) [Compound 128], for which the IC50 against PARG (389-976) (Table 3, class symbol) was < 100 nM.
For `CC1(NS(=O)(=O)c2ccc3c(c2)c(-c2nnc(C(F)F)s2)nn3Cc2ccc3cncn3c2)CC1` [Compound 59], on PARG (389-976) (Table 2, class symbol), the IC50 was < 100 nM.
On the same count and under the same terms, as for `CC(C)C(=O)N1CCN(c2cc(S(=O)(=O)NC3(C)CC3)cc3c(-c4nnc(C(F)F)s4)nn(CC4CC4)c23)CC1` [Compound 15], the figure is < 100 nM.
Consider `CC(C)C(=O)N1CCN(c2cc(S(=O)(=O)NC3(C#N)CC3)cc3c(-c4nnc(C(F)F)s4)nn(C)c23)CC1` [Compound 17], for which the IC50 at PARG (389-976) (Table 2, class symbol) was < 100 nM; on PARG (389-976) (Table 2, value in brackets), 0.6 nM; at PARG, 3.6 nM.
As to `CC(C)C(=O)N1C2CCC1CN(c1cc(S(=O)(=O)NC3(C#N)CC3)cc3c(-c4nnc(C(F)F)s4)nn(C)c13)C2` [Compound 102], the IC50 on PARG (389-976) (Table 3, class symbol) was < 100 nM.

What is called IC50 is the midpoint of a concentration-inhibition curve. A lower IC50 goes with greater potency in that assay.

The values above are taken from patent publication US20230278998A1, “Compound containing structure of a five-membered heteroaromatic ring, pharmaceutical compositions thereof and applications thereof” (280 Bio, Inc., priority 2022, published 2023).
